Biological target: T1, Human GLP-1 receptor (Homo sapiens, UniProt P43220)
T1 construct: expressed in transfected cells; host or cells: CHO-K1
Assay: Measurement of GLP-1 receptor agonist activity (cAMP assay in hGLP-1R/CHO-K1 cells)
Assay type: cell-based
Details: for Emax: CHO-K1, maximum effect, cAMP with 2 nM human GLP-1 (7-36) = 100%, DMSO only = 0%; for EC50: cAMP increase in hGLP-1R/CHO-K1 cells, 1 hour at 37° C., with Forskolin
Method: Human GLP-1 receptor stably expressing cells (hGLP-1R/CHO-K1 cells) are cultured in an α-MEM medium (Sigma) containing 10% FBS (Hyclone), 2% GlutaMAX (Gibco), 1% G418 (Nacalai Tesque), and 1% Penicillin-Streptomycin Mixed Solution (Sigma) at 37° C. under 5% CO2 conditions, and recovered by treating a 10 fold diluted 5.0 g/1-trypsin/5.3 mmol/1-EDTA solution (Nacalai Tesque) and cryopreserved.
A DMSO solution containing the compound of the present invention or human GLP-1 (7-36) (Phoenix Pharmaceuticals) is dispensed into a 384-well microplate (Greiner) at 62.5 nL/well, and in addition, 400 μM Forskolin (Nacalai Tesque) is dispensed therein at 7.5 nL/well. Subsequently, the frozen GLP-1 R/CHO-K1 cells are thawed in a thermostatic bath at 37° C., suspended in HBSS buffer (GIBCO) containing 0.1% BSA (Sigma), 20 mM HEPES, 0.1 mM IBMX (Sigma), and 0.2 mM RO20-1724 (Calbiochem) at 2×10^4 cells/mL, and the cell suspension is added at 6 μL/well. The solution was incubated at 37° C. for 1 hour and intracellular cAMP concentration is measured using cAMP Gs dynamic kit (Cisbio) according to the protocol attached to the product. Specifically, a cAMP-d2/Anti-cAMP-Cryptate (1/1) mixture solution is added in a total amount of 6 μL/well, and is incubated at room temperature for 1 hour, and then, time-resolved fluorescence is measured using PHERAstar (BMG Labtech).
Assuming that the cAMP concentration when human GLP-1 (7-36) is dispensed to a final concentration of 2 nM is 100% and the cAMP concentration when only DMSO is dispensed is 0%, the 50% effective concentration (EC50) and the maximum effect (Emax) of the compound of the present invention are calculated using an increase in the cAMP concentration as an index, using TIBCO Spotfire (TIBCO Software). The dilution concentration or the dilution solvent are changed as necessary.
The compounds of the present invention were tested essentially as described above.

T1 sequence (P43220 24-463): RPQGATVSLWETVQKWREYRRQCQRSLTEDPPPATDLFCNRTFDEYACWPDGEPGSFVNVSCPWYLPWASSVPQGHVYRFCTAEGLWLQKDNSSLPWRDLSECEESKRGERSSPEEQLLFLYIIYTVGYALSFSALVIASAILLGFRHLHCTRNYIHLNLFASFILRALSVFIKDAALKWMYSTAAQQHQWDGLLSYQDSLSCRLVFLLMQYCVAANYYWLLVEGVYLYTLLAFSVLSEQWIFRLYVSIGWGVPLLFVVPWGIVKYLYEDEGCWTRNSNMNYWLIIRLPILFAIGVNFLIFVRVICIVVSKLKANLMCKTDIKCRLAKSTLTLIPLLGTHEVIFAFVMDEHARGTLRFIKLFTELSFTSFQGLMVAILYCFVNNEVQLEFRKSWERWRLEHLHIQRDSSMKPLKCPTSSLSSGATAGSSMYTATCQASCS

Emax [%] | EC50 [nM] | Structure (SMILES)
65.3 | 354 | CC(NCc1nc2ccc(C(=O)O)cc2n1C[C@@H]1CCO1)c1nc(OCc2ccc(Cl)cc2F)c(C(F)(F)F)cc1F (mixture of isomers) [Compound I-003]
60 | 1060 | CC(NCc1nc2ccc(C(=O)O)cc2n1C[C@@H]1CCO1)c1ccc(C(F)(F)F)c(OCc2ccc(Cl)cc2F)n1 (mixture of isomers) [Compound I-004]
74.7 | 86 | CC(c1ccc(C(F)(F)F)c(OCc2ccc(Cl)cc2F)n1)N(C)Cc1nc2ccc(C(=O)O)cc2n1C[C@@H]1CCO1 (stereo partly shown) [Compound I-005]

The remaining lines, values behind:

Structure (SMILES) | Emax [%] | EC50 [nM]
CN(CCc1cnc(OCc2ccc(Cl)cc2F)c(C(F)(F)F)c1)Cc1nc2ccc(C(=O)O)cc2n1C[C@@H]1CCO1 [Compound I-002] | 52 | 2300
O=C(O)c1ccc2nc(CNCc3ccc(C(F)(F)F)c(OCc4ccc(Cl)cc4F)n3)n(C[C@@H]3CCO3)c2c1 [Compound I-006] | 55 | 2830
